In PubChem BioAssay (NCI):
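Five concentrations, 48 hours, 96-well plates. TGI denotes the concentration required for complete inhibition of growth.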

What was measured:
Assay in all cases: NCI-60 cell line screen, 48 h
OVCAR-8 ovarian = system: OVCAR-8 ovarian
NCI-H522 lung = system: NCI-H522 lung
MALME-3M melanoma = system: MALME-3M melanoma
SK-MEL-2 melanoma = system: SK-MEL-2 melanoma
A549 NSCLC = system: A549 NSCLC
SNB-75 CNS = system: SNB-75 CNS
SNB-19 CNS = system: SNB-19 CNS
ACHN renal = system: ACHN renal
SK-OV-3 ovarian = system: SK-OV-3 ovarian
SK-MEL-5 melanoma = system: SK-MEL-5 melanoma
UACC-257 melanoma = system: UACC-257 melanoma
MDA-MB-435 = system: MDA-MB-435
COLO 205 colon = system: COLO 205 colon
UACC-62 melanoma = system: UACC-62 melanoma
HT29 colon = system: HT29 colon
SN12C renal = system: SN12C renal
EKVX NSCLC = system: EKVX NSCLC
SF-268 CNS = system: SF-268 CNS
OVCAR-5 ovarian = system: OVCAR-5 ovarian
HL-60(TB) leukemia = system: HL-60(TB) leukemia
OVCAR-4 ovarian = system: OVCAR-4 ovarian
HCT-116 colon = system: HCT-116 colon
BT-549 breast = system: BT-549 breast
RXF 393 renal = system: RXF 393 renal
HS 578T breast = system: HS 578T breast
HCT-15 colon = system: HCT-15 colon
RPMI-8226 leukemia = system: RPMI-8226 leukemia
786-0 renal = system: 786-0 renal
CAKI-1 renal = system: CAKI-1 renal
DU-145 prostate = system: DU-145 prostate
MDA-MB-231 breast = system: MDA-MB-231 breast
NCI-H226 lung = system: NCI-H226 lung
MCF7 breast = system: MCF7 breast
U251 CNS = system: U251 CNS
T-47D breast = system: T-47D breast
A498 renal = system: A498 renal
M14 melanoma = system: M14 melanoma
NCI/ADR-RES ovarian = system: NCI/ADR-RES ovarian
K-562 leukemia = system: K-562 leukemia
KM12 colon = system: KM12 colon
PC-3 prostate = system: PC-3 prostate
CCRF-CEM leukemia = system: CCRF-CEM leukemia
SR leukemia = system: SR leukemia
UO-31 renal = system: UO-31 renal
NCI-H23 lung = system: NCI-H23 lung
SF-295 CNS = system: SF-295 CNS
SF-539 CNS = system: SF-539 CNS
IGROV1 ovarian = system: IGROV1 ovarian
NCI-H460 lung = system: NCI-H460 lung
SW-620 colon = system: SW-620 colon
HOP-92 NSCLC = system: HOP-92 NSCLC
HOP-62 NSCLC = system: HOP-62 NSCLC
OVCAR-3 ovarian = system: OVCAR-3 ovarian
MOLT-4 leukemia = system: MOLT-4 leukemia
MDA-N = system: MDA-N
SK-MEL-28 melanoma = system: SK-MEL-28 melanoma

## Cc1[nH]c(-c2ccccc2)c(O)c1C(=O)OC1CC(C)CCC1C(C)C (stereo unspecified)
OVCAR-8 ovarian
  TGI: 29.9 µM
NCI-H522 lung
  TGI: 26.6 µM
MALME-3M melanoma
  TGI: 32.9 µM
SK-MEL-2 melanoma
  TGI: 28.2 µM
A549 NSCLC
  TGI: 26.2 µM
SNB-75 CNS
  TGI: 34.3 µM
SNB-19 CNS
  TGI: 31.1 µM
ACHN renal
  TGI: 30 µM
SK-OV-3 ovarian
  TGI: 29.1 µM
SK-MEL-5 melanoma
  TGI: 30.2 µM
UACC-257 melanoma
  TGI: 29.5 µM
MDA-MB-435
  TGI: 28 µM
COLO 205 colon
  TGI: 27.9 µM
UACC-62 melanoma
  TGI: 30.9 µM
HT29 colon
  TGI: 27.5 µM
SN12C renal
  TGI: 29.1 µM
EKVX NSCLC
  TGI: 23.9 µM
SF-268 CNS
  TGI: 29.4 µM
OVCAR-5 ovarian
  TGI: 27.2 µM
HL-60(TB) leukemia
  TGI: 42.6 µM
OVCAR-4 ovarian
  TGI: 27.4 µM
HCT-116 colon
  TGI: 28.1 µM
BT-549 breast
  TGI: 33 µM
RXF 393 renal
  TGI: 24.3 µM
HS 578T breast
  TGI: 39 µM
HCT-15 colon
  TGI: 32.1 µM
RPMI-8226 leukemia
  TGI: 54.9 µM
786-0 renal
  TGI: 28.6 µM
CAKI-1 renal
  TGI: 32.2 µM
DU-145 prostate
  TGI: 29.7 µM
MDA-MB-231 breast
  TGI: 29 µM
NCI-H226 lung
  TGI: 30.9 µM
MCF7 breast
  TGI: 14.9 µM
U251 CNS
  TGI: 28.9 µM
T-47D breast
  TGI: 26.8 µM
A498 renal
  TGI: 32.7 µM
M14 melanoma
  TGI: 29 µM
NCI/ADR-RES ovarian
  TGI: 28.2 µM
K-562 leukemia
  TGI: > 100 µM
KM12 colon
  TGI: 27.9 µM
PC-3 prostate
  TGI: 26.7 µM
CCRF-CEM leukemia
  TGI: 31 µM
SR leukemia
  TGI: 34.7 µM
UO-31 renal
  TGI: 26 µM
NCI-H23 lung
  TGI: 26.6 µM
SF-295 CNS
  TGI: 24.8 µM
SF-539 CNS
  TGI: 29.7 µM
IGROV1 ovarian
  TGI: 29 µM
NCI-H460 lung
  TGI: 28.6 µM
SW-620 colon
  TGI: 29.2 µM
HOP-92 NSCLC
  TGI: 32.7 µM
HOP-62 NSCLC
  TGI: 28.6 µM
OVCAR-3 ovarian
  TGI: 25.2 µM
MOLT-4 leukemia
  TGI: 28.1 µM
MDA-N
  TGI: 29.9 µM
SK-MEL-28 melanoma
  TGI: 29.8 µM
